Values after ≈ are worked out from the molar mass of the structure shown. Like-named read-outs stand apart in the source and are kept apart here.
What was measured:
M. tuberculosis H37Rv = test: Anti-mycobacterium in vitro activity, H37Rv; type: cell-based, Mycobacterium tuberculosis; details: Sensitive strain; for MIC: Mycobacterium tuberculosis, H37RV
[1] = test system: Trichophyton mentagrophytes ATCC 10270; test: Antifungal in vitro MIC, Trichophyton mentagrophytes; type: cell-based; details: Trichophyton mentagrophytes, ATCC10270; percent inhibition >= 80%; read-out: MIC Trichophyton mentagrophytes ATCC 10270
[2] = test system: Microsporum canis ATCC 10214; test: Antifungal in vitro MIC, Microsporum canis; type: cell-based; details: Microsporum canis, ATCC10214; percent inhibition >= 80%; read-out: MIC Microsporum canis ATCC 10214
[3] = test system: Candida glabrata ATCC 15126; test: Antifungal in vitro MIC, Candida glabrata; type: cell-based; details: Nakaseomyces glabratus, ATCC15126; percent inhibition >= 80%; read-out: MIC Candida glabrata ATCC 15126
[4] = test system: Aspergillus fumigatus ATCC 204305; test: Antifungal in vitro MIC, Aspergillus fumigatus; type: cell-based; details: Aspergillus fumigatus, ATCC204305; percent inhibition >= 80%; read-out: MIC Aspergillus fumigatus ATCC 204305
[5] = test system: Candida parapsilosis ATCC 22019; test: Antifungal in vitro MIC, Candida parapsilosis; type: cell-based; details: Lodderomyces parapsilosis, ATCC22019; percent inhibition >= 80%; read-out: MIC Candida parapsilosis ATCC 22019
S. aureus ATCC 29213 = test: MIC determination, S. aureus ATCC 29213; type: cell-based, Staphylococcus aureus; details: for MIC: Staphylococcus aureus, read-out: MIC S. aureus ATCC 29213
E. faecalis ATCC 29212 = test: MIC determination, E. faecalis ATCC 29212; type: cell-based, Enterococcus faecalis; details: for MIC: Enterococcus faecalis, read-out: MIC E. faecalis ATCC 29212
H. influenzae ATCC 49766 = test: MIC determination, H. influenzae ATCC 49766; type: cell-based, Haemophilus influenzae; details: Table 2
[6] = test system: S. epidermidis ATCC 12228; test: MIC determination, S. epidermidis ATCC 12228; type: cell-based, Staphylococcus epidermidis; details: for MIC: Staphylococcus epidermidis, read-out: MIC S. epidermidis ATCC 12228
E. faecium CT-26 = test: MIC determination, E. faecium CT-26; type: cell-based, Enterococcus faecium; details: for MIC: Enterococcus faecium, read-out: MIC E. faecium CT-26
[7] = test system: M. catarrhalis ATCC 25238; test: MIC determination, M. catarrhalis ATCC 25238; type: cell-based
S. pneumoniae ATCC 6301 = test: MIC determination, S. pneumoniae ATCC 6301; type: cell-based, Streptococcus pneumoniae; details: for MIC: Streptococcus pneumoniae

Structure (SMILES): CC[C@@H](CO)NCCN[C@@H](CC)CO [Ethambutol]
- MIC (M. tuberculosis H37Rv): < 1 µg/mL

Structure (SMILES): CCc1cc(C(N)=S)ccn1 [Ethionamide]
- MIC (M. tuberculosis H37Rv): 1 µg/mL (≈ 6.02 µM)

Structure (SMILES): OC(Cn1cncn1)(Cn1cncn1)c1ccc(F)cc1F [Fluconazole, reference compound]
- MIC [1]: 16 µg/mL (≈ 52.2 µM)
- MIC [2]: 16 µg/mL (≈ 52.2 µM)
- MIC [3]: 3 µg/mL (≈ 9.8 µM)
- MIC [4]: > 64 µg/mL
- MIC [5]: 2.5 µg/mL (≈ 8.16 µM)

Structure (SMILES): C[C@@H](O)[C@H]1C(=O)N2C(C(=O)O)=C(SCCN=CN)C[C@H]12 [Imipenem, reference compound]
- MIC (S. aureus ATCC 29213; ATCC29213, Table 1): 0.125 µg/mL (≈ 0.418 µM)
- MIC (S. aureus ATCC 29213; ATCC29213, Table 2): 0.12 µg/mL (≈ 0.401 µM)
- MIC (E. faecalis ATCC 29212; ATCC29212, Table 1): 1 µg/mL (≈ 3.34 µM)
- MIC (E. faecalis ATCC 29212; ATCC29212, Table 2): 1 µg/mL (≈ 3.34 µM)
- MIC (H. influenzae ATCC 49766; Haemophilus influenzae, ATCC49766): 2 µg/mL (≈ 6.68 µM)
- MIC ([6]; ATCC12228, Table 1): 0.125 µg/mL (≈ 0.418 µM)
- MIC ([6]; ATCC12228, Table 2): 0.12 µg/mL (≈ 0.401 µM)
- MIC (E. faecium CT-26; CT26, Table 1): 64 µg/mL (≈ 214 µM)
- MIC (E. faecium CT-26; CT26, Table 2): 64 µg/mL (≈ 214 µM)
- MIC ([7]; Moraxella catarrhalis, ATCC25238, Table 1, read-out: MIC M. catarrhalis ATCC 25238): 0.125 µg/mL (≈ 0.418 µM)
- MIC (S. pneumoniae ATCC 6301; ATCC6301, Table 1, read-out: MIC S. pneumoniae ATCC 6301): 0.125 µg/mL (≈ 0.418 µM)
- MIC (S. pneumoniae ATCC 6301; ATCC6301, Table 2, read-out: MIC S. pneumonia ATCC 6301): < 0.125 µg/mL

Structure (SMILES): NNC(=O)c1ccncc1 [Isoniazid (INH), Isoniazid]
- MIC (M. tuberculosis H37Rv): < 0.062 µg/mL

Structure (SMILES): NC[C@H]1O[C@H](O[C@H]2[C@H](O)[C@@H](O[C@H]3O[C@H](CO)[C@@H](O)[C@H](N)[C@H]3O)[C@H](N)C[C@@H]2N)[C@H](O)[C@@H](O)[C@@H]1O [Kanamycin]
- MIC (M. tuberculosis H37Rv): < 2 µg/mL

Structure (SMILES): CC1COc2c(N3CCN(C)CC3)c(F)cc3c(=O)c(C(=O)O)cn1c23 (centres unmarked) [Ofloxacin]
- MIC (M. tuberculosis H37Rv): 4 µg/mL (≈ 11.1 µM)

Structure (SMILES): CC1(C)S[C@@H]2[C@H](NC(=O)Cc3ccccc3)C(=O)N2[C@H]1C(=O)O [Pen G, reference compound]
- MIC S. aureus ATCC 29213 (S. aureus ATCC 29213; Table 1): 0.5 micrograms per ml
- MIC S. aureus ATCC 29213 (S. aureus ATCC 29213; Table 2): 0.5 micrograms per ml
- MIC E. faecalis ATCC 29212 (E. faecalis ATCC 29212; Table 1): 1 micrograms per ml
- MIC E. faecalis ATCC 29212 (E. faecalis ATCC 29212; Table 2): 1 micrograms per ml
- MIC H. influenzae ATCC 49766 (H. influenzae ATCC 49766): 0.12 micrograms per ml
- MIC S. epidermidis ATCC 12228 ([6]; Table 1): 16 micrograms per ml
- MIC S. epidermidis ATCC 12228 ([6]; Table 2): 16 micrograms per ml
- MIC E. faecium CT-26 (E. faecium CT-26; Table 1): 32 micrograms per ml
- MIC E. faecium CT-26 (E. faecium CT-26; Table 2): 32 micrograms per ml
- MIC M. catarrhalis ATCC 25238 ([7]; Table 1): 0.125 micrograms per ml
- MIC S. pneumoniae ATCC 6301 (S. pneumoniae ATCC 6301; Table 1): 0.125 micrograms per ml
- MIC S. pneumonia ATCC 6301 (S. pneumoniae ATCC 6301; Table 2): <0.125 micrograms per ml

Structure (SMILES): CO[C@H]1/C=C/O[C@@]2(C)Oc3c(C)c(O)c4c(O)c(c(/C=N/N5CCN(C)CC5)c(O)c4c3C2=O)NC(=O)/C(C)=C\C=C\[C@H](C)[C@H](O)[C@@H](C)[C@@H](O)[C@@H](C)[C@H](OC(C)=O)[C@@H]1C [Rifampicin]
- MIC (M. tuberculosis H37Rv): < 0.125 µg/mL

Structure (SMILES): [H]/N=C(/N)N[C@H]1[C@H](O)[C@@H](O)[C@H](O[C@@H]2O[C@@H](C)[C@](O)(C=O)[C@H]2O[C@@H]2O[C@@H](CO)[C@H](O)[C@@H](O)[C@@H]2NC)[C@@H](N/C(N)=N\[H])[C@@H]1O [Streptomycin]
- MIC (M. tuberculosis H37Rv): < 2 µg/mL

Structure (SMILES): N[C@@H]1CON=C1O [cycloserine]
- MIC (M. tuberculosis H37Rv): 8 µg/mL (≈ 78.4 µM)

Structure (SMILES): Nc1ccc(C(=O)O)c(O)c1 [p-aminosalicylate]
- M. tuberculosis MIC H37Rv (M. tuberculosis H37Rv): <0.25 µg/mL

— US7390806B2, “Antibiotics containing borinic acid complexes and methods of use” (Anacor Pharmaceuticals, Inc., priority 2002, dated 2008)
